From ChEMBL document CHEMBL2311419, “Discovery of coumarin-dihydropyridine hybrids as bone anabolic agents” (J Med Chem, 2013)
The source made the active and inactive calls. The calls are words filed in the database; no cut-off is given here.

Legend:
[1] = test system: Mus musculus; test: Induction of new bone formation in ovariectomized BALB/c mouse model assessed as increase in bone formation rate at 10 mg/kg/day, po qd for 8 weeks by bone histomorphometry analysis (Rvb =0.10 um'3/um'2/day); assay type: functional
[2] = test system: Mus musculus; test: Antiosteoporotic activity in ovariectomized BALB/c mouse model assessed as restoration of ovariectomy-induced increase in structural model index at 5 mg/kg/day, po qd for 8 weeks; assay type: functional, organism-based
[3] = test system: Mus musculus; test: Induction of new bone formation in ovariectomized BALB/c mouse model assessed as increase in mineral apposition rate at 1 mg/kg/day, po qd for 8 weeks by bone histomorphometry analysis (Rvb =0.11 um/day); assay type: functional
[4] = test system: Mus musculus; test: Inhibition of bone turnover in ovariectomized BALB/c mouse model assessed as reduction in ovariectomy-induced serum osteocalcin levels at 1 to 5 mg/kg/day, po qd for 8 weeks by ELISA relative to control; assay type: functional, organism-based
[5] = test system: Calvarial osteoblast; test: Induction of osteoblastogenesis in mouse calvarial osteoblasts assessed as increase in COL1 expression at 100 pM to 10 nM by Western blotting analysis; assay type: functional, cell-based
[6] = test system: Mus musculus; test: Inhibition of osteoclastogenesis in ovariectomized BALB/c mouse model assessed as increase in OPG/RANKL ratio at 1 mg/kg/day, po qd for 8 weeks by qPCR analysis; assay type: functional, organism-based
[7] = organism: Mus musculus; test: Stimulation of alkaline phosphatase activity in mouse calvarial osteoblasts at 1 pM to 1 uM after 48 hrs by spectrophotometric analysis relative to nifedipine
[8] = test system: Mus musculus; test: Antiosteoporotic activity in ovariectomized BALB/c mouse model assessed as restoration of ovariectomy-induced reduction in bone volume/trabecular volume at 1 mg/kg/day, po qd for 8 weeks (reference value: 0.45+/-0.07%); assay type: functional, Trabecula; parameters: scale not given: the % may be the effect or the level left
[9] = test system: Mus musculus; test: Antiosteoporotic activity in ovariectomized BALB/c mouse model assessed as restoration of ovariectomy-induced increase in structural model index at 1 mg/kg/day, po qd for 8 weeks; assay type: functional, organism-based
[10] = test system: Calvarial osteoblast; test: Induction of osteoblastogenesis in mouse calvarial osteoblasts assessed as increase in expression of COL1 gene at 100 pM to 10 nM by qPCR analysis relative to control; assay type: functional
[11] = test system: Calvarial osteoblast; test: Induction of osteoblastogenesis in mouse calvarial osteoblasts assessed as increase in expression of RUNX2 gene at 100 pM by qPCR analysis relative to control; assay type: functional, cell-based
[12] = test system: Calvarial osteoblast; test: Induction of proliferation of mouse calvarial osteoblasts at 1 pM to 1 uM after 48 hrs; assay type: functional, cell-based
[13] = test system: Calvarial osteoblast; test: Induction of osteoblastogenesis in mouse calvarial osteoblasts assessed as increase in expression of osteocalcin gene at 100 pM by qPCR analysis relative to control; assay type: functional, cell-based
[14] = test system: Mus musculus; test: Antiosteoporotic activity in ovariectomized BALB/c mouse model assessed as restoration of ovariectomy-induced reduction in bone volume/trabecular volume at 10 mg/kg/day, po qd for 8 weeks (reference value: 0.45+/-0.07%); assay type: functional, Trabecula; parameters: scale not given: the % may be the effect or the level left
[15] = test system: Mus musculus; test: Induction of new bone formation in ovariectomized BALB/c mouse model assessed as increase in mineral apposition rate at 5 mg/kg/day, po qd for 8 weeks by bone histomorphometry analysis (Rvb =0.11 um/day); assay type: functional
[16] = test system: Mus musculus; test: Antiosteoporotic activity in ovariectomized BALB/c mouse model assessed as restoration of ovariectomy-induced reduction in trabecular number at 1 mg/kg/day, po qd for 8 weeks (reference value: 0.12+/-0.02 /mm); assay type: functional, Trabecula
[17] = test system: Mus musculus; test: Induction of osteoblast differentiation in ovariectomized BALB/c mouse model assessed as upregulation of COL1 mRNA expression po administered qd for 8 weeks by qPCR analysis; assay type: functional, organism-based
[18] = test system: Calvarial osteoblast; test: Induction of mineralization in mouse calvarial osteoblasts assessed as increase of mineralized nodules formation measuring concentration required for maximum activity after 21 days by alizarin red-S staining based spectrophotometric analysis; assay type: functional
[19] = test system: Calvarial osteoblast; test: Induction of osteoblastogenesis in mouse calvarial osteoblasts assessed as increase in BMP2 expression at 100 pM to 10 nM by Western blotting analysis; assay type: functional, cell-based
[20] = test system: Mus musculus; test: Inhibition of osteoclastogenesis in ovariectomized BALB/c mouse model assessed as suppression of RANK gene expression at 5 to 10 mg/kg/day, po qd for 8 weeks by qPCR analysis; assay type: functional, organism-based
[21] = test system: Calvarial osteoblast; test: Induction of mineralization in mouse calvarial osteoblasts assessed as increase of mineralized nodules formation at 100 pM after 21 days by alizarin red-S staining based spectrophotometric analysis; assay type: functional
[22] = test system: Mus musculus; test: Induction of osteoblast differentiation in ovariectomized BALB/c mouse model assessed as upregulation of BMP2 mRNA expression po administered qd for 8 weeks by qPCR analysis; assay type: functional, organism-based

Question: How did the Activity [1] turn out when `CCOC(=O)C1=C(C)NC2=C(C(=O)CCC2)C1c1cc(C(C)CC)c2oc(=O)c(C(=O)OC)cc2c1` (configuration not stated) was run?
Answer: Its Activity is 0.31 um3/um2/day.

Question: What about the Activity [2] of the same compound?
Answer: Its Activity is “Active”.

Question: What about the Activity [3] of the same compound?
Answer: The Activity was 0.291 micrometer/day.

Question: And the inhibition [4]?
Answer: Its inhibition is “Active”.

Question: And the Activity [5]?
Answer: Its Activity is “Active”.

Question: What about the inhibition [6] of the same compound?
Answer: The inhibition was “Active”.

Question: And the Activity [7]?
Answer: The Activity was 32%.

Question: And the Activity [8]?
Answer: Its Activity is 2.85%.

Question: And the Activity [9]?
Answer: Its Activity is “Active”.

Question: What about the “fold change (FC)” value [10] of the same compound?
Answer: Its value is 1.5.

Question: What about the Activity [11] of the same compound?
Answer: Its Activity is “Active”.

Question: And the Activity [12]?
Answer: The Activity was “Active”.

Question: What about the Activity [13] of the same compound?
Answer: The Activity was “Active”.

Question: What about the Activity [14] of the same compound?
Answer: Its Activity is 2.07%.

Question: What about the Activity [15] of the same compound?
Answer: The Activity was 0.294 micrometer/day.

Question: And the Activity [16]?
Answer: Its Activity is 0.4 /millimeter.

Question: What about the Activity [17] of the same compound?
Answer: The Activity was “Dose-dependent effect”.

Question: And the “Concentration for maximum mineralization” value [18]?
Answer: The value was 100 pM.

Question: What about the Activity [19] of the same compound?
Answer: Its Activity is “Active”.

Question: And the inhibition [20]?
Answer: The inhibition was “Active”.

Question: What about the Activity [21] of the same compound?
Answer: The Activity was 65%.

Question: What about the Activity [22] of the same compound?
Answer: Its Activity is “Dose-dependent effect”.
